Where a chain is given by its changes, count along the chain named.
What was measured:
[1] = biological target: T1, FLT3 D835Y (Homo sapiens, UniProt P36888, D835Y); experiment: DiscoverX KINOMEscan competition binding assay, FLT3 D835Y; details: 11-point 3-fold dilution
T1 construct: purchased DiscoverX (KINOMEscan); host or cells: E. coli BL21-derived host (T7 phage) or HEK-293
T1 sequence (P36888 27-993 D835Y): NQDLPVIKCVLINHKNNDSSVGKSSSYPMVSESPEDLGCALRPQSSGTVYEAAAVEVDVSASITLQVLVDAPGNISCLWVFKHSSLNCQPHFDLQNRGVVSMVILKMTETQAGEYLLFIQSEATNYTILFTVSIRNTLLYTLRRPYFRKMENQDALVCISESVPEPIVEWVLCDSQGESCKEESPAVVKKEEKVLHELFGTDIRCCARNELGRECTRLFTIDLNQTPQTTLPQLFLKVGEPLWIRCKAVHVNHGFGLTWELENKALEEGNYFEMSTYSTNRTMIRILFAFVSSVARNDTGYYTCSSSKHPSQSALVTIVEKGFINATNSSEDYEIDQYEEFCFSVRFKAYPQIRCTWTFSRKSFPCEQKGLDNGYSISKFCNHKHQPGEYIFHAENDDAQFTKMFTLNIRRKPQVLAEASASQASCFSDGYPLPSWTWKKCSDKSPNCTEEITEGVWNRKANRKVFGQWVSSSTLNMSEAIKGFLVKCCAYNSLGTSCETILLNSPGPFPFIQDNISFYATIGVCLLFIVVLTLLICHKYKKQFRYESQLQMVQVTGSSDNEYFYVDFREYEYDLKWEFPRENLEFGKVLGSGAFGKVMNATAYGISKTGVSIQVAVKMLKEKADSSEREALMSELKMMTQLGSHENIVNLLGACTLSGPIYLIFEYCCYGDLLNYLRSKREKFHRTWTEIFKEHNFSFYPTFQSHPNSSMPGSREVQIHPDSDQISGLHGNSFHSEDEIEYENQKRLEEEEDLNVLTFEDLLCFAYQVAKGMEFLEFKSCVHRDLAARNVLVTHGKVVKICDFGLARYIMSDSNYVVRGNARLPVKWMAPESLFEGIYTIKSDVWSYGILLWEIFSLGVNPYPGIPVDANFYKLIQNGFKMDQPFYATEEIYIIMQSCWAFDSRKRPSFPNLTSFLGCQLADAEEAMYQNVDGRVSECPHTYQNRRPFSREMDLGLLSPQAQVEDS
Text: (§1) […]. […] As a result, the data report thermodynamic interaction affinities (Kd values), rather than IC50 values that are dependent on ATP concentrations. The assay uses a DNA-tagged version of the protein kinase, and an immobilized ligand bound to a solid support. Compounds that directly or indirectly prevent kinase binding to the immobilized ligand reduce the amount of kinase captured on the solid support, which is detected using an ultra-sensitive qPCR method. Affinity constants reported from the assay have been reported to be independent of the immobilized ligand used that is coupled to the solid support (See supplemental information in Fabian, M. A. et. al., (2005) Nat. Biotechnol. 23, 329-336; Wodicka, L. M. et. al., (2010) Chem. Biol. 17, 1241-1249.)
(§2) Kinase-tagged T7 phage strains were prepared in an E. coli host derived from the BL21 strain. E. coli were grown to log-phase and infected with T7 phage and incubated with shaking at 32° C. until lysis. The lysates were centrifuged and filtered to remove cell debris. The remaining kinases were produced in HEK-293 cells and subsequently tagged with DNA for qPCR detection. Streptavidin-coated magnetic beads were treated with biotinylated small molecule ligands for 30 minutes at room temperature to generate affinity resins for kinase assays. The liganded beads were blocked with excess biotin and washed with blocking buffer (SeaBlock (Pierce), 1% BSA, 0.05% Tween 20, 1 mM DTT) to remove unbound ligand and to reduce non-specific binding. […] Test compounds were prepared as 111× stocks in 100% DMSO. Kds were determined using an 11-point 3-fold compound dilution series with three DMSO control points. All compounds for Kd measurements are distributed by acoustic transfer (non-contact dispensing) in 100% DMSO. The compounds were then diluted directly into the assays such that the final concentration of DMSO was 0.9%. All reactions were performed in polypropylene 384-well plates. Each was a final volume of 0.02 mL. […] The kinase concentration in the eluates was measured by qPCR.
(§3) Binding constants (Kds) were calculated with a standard dose-response curve using the Hill equation. The Hill Slope was set to −1. Curves were fitted using a non-linear least square fit with the Levenberg-Marquardt algorithm.

[2] = biological target: T2, FLT3 (Homo sapiens, UniProt P36888); experiment: DiscoverX KINOMEscan competition binding assay, FLT3; set-up: purchased Reaction Biology (RBC HotSpot); details: 11-point 3-fold dilution
T2 sequence (P36888 27-993): T1 sequence (P36888 27-993 D835Y) with Y809D
Text: as §1, §2, §3

| Compound | Kd [1] | Kd [2] |
| --- | --- | --- |
| COc1cc2ncc(-c3nc(N[C@H]4CNCC[C@@H]4F)ncc3F)n2nc1N1CCCS1(=O)=O [Compound 112a, 2-(3-(5-fluoro-2-(((3S,4S)-4-fluoropiperidin-3-yl)amino)pyrimidin-4-yl)-7-methoxyimidazo[1,2-b]pyridazin-6-yl)isothiazolidine 1,1-dioxide] | < 0.17 nM | < 0.17 nM |
| COc1cc2ncc(-c3nc(N[C@H]4CNCC[C@@H]4F)ncc3F)n2nc1C(C)(C)O [Compound 45a, 2-(3-(5-fluoro-2-(((3S,4S)-4-fluoropiperidin-3-yl)amino)pyrimidin-4-yl)-7-methoxyimidazo[1,2-b]pyridazin-6-yl)propan-2-ol] | 0.2 nM | 1.1 nM |
| COc1cc2ncc(-c3nc(N[C@H]4CNCC[C@@H]4F)ncc3F)n2nc1C1COC1 [Compound 92a, 5-fluoro-N-((3S,4S)-4-fluoropiperidin-3-yl)-4-(7-methoxy-6-(oxetan-3-yl)imidazo[1,2-b]pyridazin-3-yl)pyrimidin-2-amine] | < 0.17 nM | < 0.17 nM |
| FC(F)COc1cc2ncc(-c3ccnc(N[C@H]4CNCC[C@@H]4F)n3)n2nc1C1CC1 [Compound 4a, 4-(6-cyclopropyl-7-(2,2-difluoroethoxy)imidazo[1,2-b]pyridazin-3-yl)-N-((3 S,4S)-4-fluoropiperidin-3-yl)pyrimidin-2-amine] | 0.42 nM | < 0.17 nM |
| CC(C)(O)c1ccc2ncc(-c3nc(N[C@H]4CNCC[C@@H]4F)ncc3F)n2c1 [Compound 46a, 2-(3-(5-fluoro-2-(((3S,4S)-4-fluoropiperidin-3-yl)amino)pyrimidin-4-yl)imidazo[1,2-a]pyridin-6-yl)propan-2-ol] | 0.26 nM | 1.2 nM |
| COc1cc2ncc(-c3nc(N[C@H]4CNCC[C@@H]4F)ncc3F)n2nc1C1CC1 [Compound 1a, 4-(6-cyclopropyl-7-methoxyimidazo[1,2-b]pyridazin-3-yl)-5-fluoro-N-((3S,4S)-4-fluoropiperidin-3-yl)pyrimidin-2-amine] | 0.23 nM | < 0.17 nM |
| CC(C)(O)c1cn2c(-c3nc(N[C@H]4CNCC[C@@H]4F)ncc3F)cnc2cn1 [Compound 100a, 2-(3-(5-fluoro-2-(((3S,4S)-4-fluoropiperidin-3-yl)amino)pyrimidin-4-yl)imidazo[1,2-a]pyrazin-6-yl)propan-2-ol] | 2.4 nM | 16 nM |

From patent US20260226048A1, “MULTI-CYCLIC IRAK AND FLT3 INHIBITING COMPOUNDS AND USES THEREOF” (CHILDREN'S HOSPITAL MEDICAL CENTER, priority 2023, published 2026)
